# From ChEMBL document CHEMBL6121036, “Evaluation of Cereblon-Directing Warheads for the Development of Orally Bioavailable PROTACs” (J Med Chem, 2025)
# The source made the active and inactive calls. The calls are words filed in the database; no cut-off is given here.
# Tests used:
# [1] = tested on: HD-MB03; assay: Cytotoxicity against human HD-MB03 cells assessed as reduction in cell viability incubated for 72 hrs by cell-titer glo assay; assay type: functional, cell-based; details: HD-MB03, 72 h
# [2] = Kinetic aqueous solubility of the compound at pH 7.4; assay type: physicochemical; details: read-out: Kinetic_solubility
# [3] = Metabolic stability in mouse liver microsomes assessed as half life; assay type: ADME, Microsome; details: liver microsomes
# [4] = target: T1, Protein cereblon/Bromodomain-containing protein 4 (Homo sapiens, UniProt O60885+Q96SW2); assay: PROTAC activity at CRBN/Hibit-tagged BRD4 (unknown origin) expressed in HEK293 cells co-expressing LgBiT assessed as degradation rate incubated for 24 hrs by […] glo-max assay; assay type: cell-based
# [5] = tested on: HEK293; assay: Cytotoxicity against HEK293 cells expressing LgBiT fused HiBiT-BRD2 measured after 24 hrs by cell titer-glo assay; assay type: toxicity, cell-based; details: human, hek293, 24 h
# [6] = target: T1, Protein cereblon/Bromodomain-containing protein 4; assay: PROTAC activity at CRBN/Hibit-tagged BRD4 (unknown origin) expressed in HEK293 cells co-expressing LgBiT assessed as degradation of BRD4 incubated for 24 hrs by […] glo-max assay relative to control; assay type: cell-based
# [7] = tested on: MV4-11; assay: Cytotoxicity against human MV4-11 cells assessed as reduction in cell viability incubated for 72 hrs by cell-titer glo assay; assay type: functional, cell-based; details: MV4-11, 72 h
# [8] = target: Protein cereblon/Bromodomain-containing protein 4/DNA damage-binding protein 1 (Homo sapiens) (UniProt O60885+Q96SW2+Q16531); assay: Binding affinity to his-tagged CRBN/DDB1/GST-tagged BRD4 (49 to 170 residues)(unknown origin) assessed as ternary complex formation (AUC) incubated for 1 hr by luminescence based Alphascreen assay; assay type: protein assay
# [9] = target: T1, Protein cereblon/Bromodomain-containing protein 4; assay: PROTAC activity at CRBN/Hibit-tagged BRD4 (unknown origin) expressed in HEK293 cells co-expressing LgBiT assessed as degradation of BRD4 incubated for 24 hrs by […] glo-max assay; assay type: cell-based
# [10] = Effect on CDC42EP3 level in human MV4-11 cells assessed as fold change at 100 nM measured after 4 hrs; assay type: functional
# [11] = Effect on CCND3 level in human MV4-11 cells assessed as fold change at 100 nM measured after 4 hrs; assay type: functional
# [12] = target: T2, Protein cereblon/Bromodomain-containing protein 2 (Homo sapiens) (UniProt P25440+Q96SW2); assay: PROTAC activity at CRBN/Hibit-tagged CRISPR BRD2 (unknown origin) expressed in HEK293 cells coexpressing LgBiT assessed as degradation of BRD2 by […] glo-max assay; assay type: cell-based
# [13] = Effect on FYTTD1 level in human MV4-11 cells assessed as fold change at 100 nM measured after 4 hrs; assay type: functional
# [14] = Effect on PLAU level in human MV4-11 cells assessed as fold change at 100 nM measured after 4 hrs; assay type: functional
# [15] = Effect on ZBTB21 level in human MV4-11 cells assessed as fold change at 100 nM measured after 4 hrs; assay type: functional
# [16] = Effect on TP53 level in human MV4-11 cells assessed as fold change at 100 nM measured after 4 hrs; assay type: functional
# [17] = Effect on NSA2 level in human MV4-11 cells assessed as fold change at 100 nM measured after 4 hrs; assay type: functional
# [18] = Effect on ZFP36L2 level in human MV4-11 cells assessed as fold change at 100 nM measured after 4 hrs; assay type: functional
# [19] = Effect on MYC level in human MV4-11 cells assessed as fold change at 100 nM measured after 4 hrs; assay type: functional
# [20] = Effect on MCL1 level in human MV4-11 cells assessed as fold change at 100 nM measured after 4 hrs; assay type: functional
# [21] = target: Protein cereblon/Bromodomain-containing protein 3 (Homo sapiens) (UniProt Q15059+Q96SW2); assay: PROTAC activity at CRBN/Hibit-tagged CRISPR BRD3 (unknown origin) expressed in HEK293 cells co-expressing LgBiT assessed as degradation of BRD3 by […] glo-max assay; assay type: cell-based
# [22] = Effect on BRD2 level in human MV4-11 cells assessed as fold change at 100 nM measured after 4 hrs; assay type: functional
# [23] = Effect on AURKA level in human MV4-11 cells assessed as fold change at 100 nM measured after 4 hrs; assay type: functional
# [24] = Stability in mouse plasma assessed as half life by UPLC-MS/MS analysis; assay type: ADME, cell-free
# [25] = Effect on PLK1 level in human MV4-11 cells assessed as fold change at 100 nM measured after 4 hrs; assay type: functional
# [26] = Effect on BRD3 level in human MV4-11 cells assessed as fold change at 100 nM measured after 4 hrs; assay type: functional
# [27] = Effect on FGL2 level in human MV4-11 cells assessed as fold change at 100 nM measured after 4 hrs; assay type: functional
# [28] = Effect on NOP53 level in human MV4-11 cells assessed as fold change at 100 nM measured after 4 hrs; assay type: functional
# [29] = Effect on RNF166 level in human MV4-11 cells assessed as fold change at 100 nM measured after 4 hrs; assay type: functional
# [30] = Effect on BRD4 level in human MV4-11 cells assessed as fold change at 100 nM measured after 4 hrs; assay type: functional
# [31] = Effect on CCNF level in human MV4-11 cells assessed as fold change at 100 nM measured after 4 hrs; assay type: functional
# [32] = Permeability in MDCK-II cells incubated for 1 hr by UPLC/MS/UV analysis; assay type: ADME, cell-based, Canis lupus familiaris; details: dog, read-out: permeability
# [33] = target: T1, Protein cereblon/Bromodomain-containing protein 4; assay: PROTAC activity at CRBN/Hibit-tagged CRISPR BRD4 (unknown origin) expressed in HEK293 cells co-expressing LgBiT assessed as degradation of BRD4 by […] glo-max assay; assay type: cell-based
# [34] = target: T2, Protein cereblon/Bromodomain-containing protein 2 (Homo sapiens); assay: PROTAC activity at CRBN/Hibit-tagged CRISPR BRD2 (unknown origin) expressed in HEK293 cells coexpressing LgBiT assessed as degradation of BRD2 by […] glo-max assay relative to control; assay type: cell-based
SMILES,IC50 [1] [nM],solubility kinetic [2] [µM],half-life [3] [h],Activity [4] [fRLU/hr],Activity [5],Emax [6] [%],IC50 [7] [nM],Activity [8],DC50 [9] [nM],fold change (FC) [10],fold change (FC) [11],fold change (FC) [13],fold change (FC) [14],fold change (FC) [15],fold change (FC) [16],fold change (FC) [17],fold change (FC) [18],fold change (FC) [19],fold change (FC) [20],fold change (FC) [22],also measured
Cc1sc2c(c1C)C(c1ccc(Cl)cc1)=N[C@@H](CC(=O)N1CCN(CC3CCN(c4ccc(C5CCC(=O)NC5=O)cc4)CC3)CC1)c1nnc(C)n1-2 (stereo partly drawn),1.96,64.5,2.16,0.245,Non-toxic,96.9,0.22,Active,0.43,,,,,,,,,,,,
Cc1sc2c(c1C)C(c1ccc(Cl)cc1)=N[C@@H](CC(=O)N1CCC(CN3CCN(c4cc5c(cc4F)C(=O)N(C4CCC(=O)NC4=O)C5=O)CC3)CC1)c1nnc(C)n1-2 (stereo partly drawn),84,73.4,0.28,0.143,,88.6,3.23,Active,6.28,-1.41,-0.96,-1.52,-1.14,-0.02,1.82,-1.04,-1.09,-2.29,-1.22,-3.06,Activity [12]: Active; Less Potent Than Protac 8; Activity [21]: Active; Less Potent Than Protac 8; fold change (FC) [23]: -0.84; half-life [24]: 13.7 h; fold change (FC) [25]: -0.75; fold change (FC) [26]: -3.93; fold change (FC) [27]: -1.1; fold change (FC) [28]: -0.81; fold change (FC) [29]: -1.01; fold change (FC) [30]: -3.89; fold change (FC) [31]: -1.86; Papp at 1 h [32]: 105 nm/s; Activity [33]: Active; Less Potent Than Protac 8
Cc1sc2c(c1C)C(c1ccc(Cl)cc1)=N[C@@H](CC(=O)NCCCOc1ccc(C3CCC(=O)NC3=O)cc1)c1nnc(C)n1-2 (stereo partly drawn),3.27,52.8,0.16,0.264,Non-toxic,97.3,0.23,Active,0.75,,,,,,,,,,,,
Cc1sc2c(c1C)C(c1ccc(Cl)cc1)=N[C@@H](CC(=O)N1CCC(CN3CCN(c4ccc(NC5CCC(=O)NC5=O)cc4)CC3)CC1)c1nnc(C)n1-2 (stereo partly drawn),31.4,5.7,2.45,0.036,,34.9,2.92,Active,6.51,-1,-0.56,-0.84,-0.73,-0.14,1.12,-0.65,-0.75,-1.77,-0.49,-1.8,fold change (FC) [23]: -0.55; half-life [24]: 12.9 h; fold change (FC) [25]: -0.56; fold change (FC) [26]: -2.78; fold change (FC) [27]: -1.19; fold change (FC) [28]: -0.49; fold change (FC) [29]: -0.29; fold change (FC) [30]: -2.24; fold change (FC) [31]: -0.38; Activity [34]: < 50%
Cc1sc2c(c1C)C(c1ccc(Cl)cc1)=N[C@@H](CC(=O)N1CC(COc3ccc(C4CCC(=O)NC4=O)cc3)C1)c1nnc(C)n1-2 (stereo partly drawn),38.2,21.3,0.28,0.07,Non-toxic,40.4,3.1,Active,13.9,,,,,,,,,,,,
Cc1sc2c(c1C)C(c1ccc(Cl)cc1)=N[C@@H](CC(=O)N1CCN(c3ccc(C4CCC(=O)NC4=O)cc3)CC1)c1nnc(C)n1-2 (stereo partly drawn),250,17,0.2,0.005,Non-toxic,10.6,18.6,Active; Lower Ternary Complex Auc Formation Observed,> 10000,,,,,,,,,,,,
Cc1sc2c(c1C)C(c1ccc(Cl)cc1)=N[C@@H](CC(=O)N1CCC(CN3CCN(c4ccc(NC5CCC(=O)NC5=O)c(F)c4)CC3)CC1)c1nnc(C)n1-2 (stereo partly drawn),14.3,71.1,1.86,0.093,,79.1,0.96,Active,2.31,-1.17,-0.82,-1.46,-1.06,-0.09,1.71,-1.03,-0.97,-2.23,-1.06,-3.07,Activity [12]: Active; Less Potent Than Protac 8; Activity [21]: Active; Less Potent Than Protac 8; fold change (FC) [23]: -0.77; half-life [24]: 19.7 h; fold change (FC) [25]: -0.65; fold change (FC) [26]: -3.87; fold change (FC) [27]: -0.95; fold change (FC) [28]: -0.82; fold change (FC) [29]: -0.33; fold change (FC) [30]: -3.41; fold change (FC) [31]: -1.62; Activity [33]: Active; Less Potent Than Protac 8
Cc1sc2c(c1C)C(c1ccc(Cl)cc1)=N[C@@H](CC(=O)OC(C)(C)C)c1nnc(C)n1-2,,,0.23,,,,,,,,,,,,,,,,,,
Cc1sc2c(c1C)C(c1ccc(Cl)cc1)=N[C@@H](CC(=O)N1CCN(c3cccc(C4CCC(=O)NC4=O)c3)CC1)c1nnc(C)n1-2 (stereo partly drawn),90.7,21.5,0.29,0.005,Non-toxic,12.3,6.36,Active; Lower Ternary Complex Auc Formation Observed,> 10000,,,,,,,,,,,,
